US20090181098A1, “Hmg-Co-a Reductase Inhibitor Enhancement of Bone and Cartilage” (OsteoScreen IP, LLC, priority 2006, published 2009)

Assays:
femur fracture model [1] = system: femur fracture model
Source text: In accordance with the study, the clinical focus involves creating uniform and reproducible fracture defects utilizing a pinned closed transverse rat femoral model chosen because it has been well defined and fully characterized by mechanical and histologic methods. Advantages of this model include reproducibility, defect uniformity, and a rapid 5 weeks to clinical union healing phase. The properties of the bioactive coating are investigated in preliminary studies in vitro and in vivo using the explanted calvarial culture and the local calvarial injection model including drug-release kinetics, degradation and stability. The aims of the study are: (1) to evaluate the effect of controlled-released locally administered lovastatin on callus formation, progression and fracture healing using X-ray analysis of fracture healing. At the end of the experiment, the fractured limb will be excised and X-rayed after removal of stabilizing pins. These X-rays will be assessed for evidence of healing of the fracture. They will be scored by 3 independent observers for healing of the fracture; (2) to evaluate the effect of controlled released lovastatin on biomechanical parameters by three-point bending and micro computer tomography (uCT); and (3) to evaluate by uCT bone microarchitecture at callus site and bone healing. […]

[2] = Plasma lovastatin by mass spectroscopy after local nanobeads; format: in vivo, rat; conditions: any of the dosed groups, end of the experiment
Protocol: Plasma was taken from the rats 3 hrs after the last dose and the lovastatin was measured by mass spectroscopy.

intact rats = experiment: Effects of transdermal lovastatin on bone in intact rats (BMD, histomorphometry, μCT); format: in vivo, rat; conditions: for Increase in bone volume, proximal tibial metaphysis: dermal, hydrophilic petrolatum, 4 weeks after treatment
Protocol: Following sacrifice, both femurs and tibiae were removed, cleaned of soft tissue, fixed in 10% formalin for 48 hours, and then stored in 70% ETOH and prepared for histology. Histomorphometric analysis was performed using a semiautomated Osteomeasure System (Osteometrics, Inc., Atlanta, Ga.) and digitizing pad and by following standard histomorphometric techniques. Bone volume, trabecular number, thickness and separation, cell number and dynamic parameters were determined as described previously by Parfitt et al. [Parfitt A M (1988) Bone histomorphometry: standardization of nomenclature, symbols and units. Summary of proposed system. J Bone Miner Res 4:1-5.]. Bone formation rates (BFR) and mineral apposition rates (MAR) were measured in plastic-embedded sections following demeclocycline and calcein injections (15 and 20 mg/kg/body weight respectively) given intraperitoneally at 10 and 4 days before sacrifice. Values for MAR were corrected for obliquity of the plane of section in cancellous bone. Rats were evaluated with a mouse densitometer, Piximus (GE Medical Systems); bone mineral density (BMD), calculated by dividing bone mineral content (g) by the projected bone area (cm^2), was assessed for the proximal third of the tibia at time 0 and at 5 weeks. Micro-computed tomography (μ-CT) analysis of the rat distal femur was kindly performed by Phil Salmon (Skyscan, Belgium). Bones were scanned using the Skyscan Model 1072 employing an x-ray tube voltage of 100 kV, and magnified to attain a pixel size of 10.13 μm. Data are expressed as the mean standard error (SEM). Statistical differences between groups were evaluated with one-way analysis of variance (ANOVA). […] P<0.05 were considered significant.

rat femur = experiment: Biomechanical testing of intact femurs (three point bending); format: in vivo
Protocol: Three month old rats were dosed with vehicle or transdermal lovastatin, 1 mg/kg/day for 5 days. Four weeks after dosing, rats were euthanized and femurs removed and stored frozen. Samples were thawed to room temperature on the day of testing, and remaining soft tissue was removed. To obtain mechanical properties, the femurs were subjected to three point bending with an EnduraTEC mechanical testing system (Elf 3300, Bose Corporation, Minnetonka, Minn.). Each rat femur was horizontally positioned on the support rollers (which were 12 mm apart) such that the vertical, rounded indenter loaded the femur with the medial side in front and the anterior side down (i.e., bending occurred about the medial-lateral axis). The force-displacement curve was recorded as the indenter traveled at rate of 3 mm/min into femur midshaft. Structural properties were obtained directly from the load deformation curves.

femur fracture model [3] = experiment: Femur fracture model, systemically delivered lovastatin (radiographs, biomechanics); format: in vivo, rat
[4] = Plasma lovastatin levels after a single oral or dermal dose, estimated by HMG-CoA reductase inhibition assay; format: in vivo, rat
Protocol: The area under the plasma concentration-time curve (AUC0-24 hr) of lovastatin equivalence was calculated using the trapezoidal rule for both oral and dermal application of lovastatin. For oral administration, a suspension of lovastatin was prepared in 0.5% methylcellulose and administered by gavage. For dermal administration, lovastatin was mixed initially with 100% DMSO and in subsequent experiments, with hydrophilic petrolatum and applied to the back of the animals after shaving (area of application=6.45 cm^2). In later experiments, the dermal formulation was modified and a aqueous alkanolic gel with a carbomer-based formulation containing water, ethanol, Carbomer 940, cholesterol, BHA and TEA was used.

neonatal murine calvaria = experiment: Neonatal murine calvarial explant culture, bone and cartilage formation; format: cell-based, mouse
Protocol: Four day old calvarial explant cultures were incubated with media containing scaffold material that releases 0, 0.4 or 8 μg/day. The extent of new cartilage is then quantitated by imaging analysis.
Experimental Design Four day old Swiss white pups were employed as they are generally a healthy mouse strain. Calvaria from 4-day old Swiss white mouse pup mice were dissected out and cut in half. The excised hemi-calvariae were placed on metal grids (at the surface) in 1 ml BGJ media with Fitton-Jackson modification BGJ media (Sigma) containing 0.1% BSA with glutamine. The bones are incubated at 37° C. in a 5% humidified incubator for a period of 24 h and then transferred to wells containing 1 ml media with test compounds and further incubated under the above conditions for 72-96 h. The bones are then removed, fixed in 10% buffered formalin for 24 h, decalcified in 14% EDTA overnight, embedded in paraffin and 4 μm-thick sections cut and stained with H&E.
Dosing. […] Calvaria are removed at day 7 and day 14. The media is changed every 3 days. Cartilage formation is assessed histologically.

[5] = transdermal 1 and 5 mg/kg/day for 5 days
[6] = transdermal 1 mg/kg/day for 5 days, femurs four weeks after dosing

## CC[C@H](C)C(=O)O[C@H]1C[C@@H](C)C=C2C=C[C@H](C)[C@H](CC[C@@H]3C[C@@H](O)CC(=O)O3)[C@H]21 [lovastatin]
Femur fracture model [1]; released from nanobeads at fracture site
  Lowest lovastatin amount tested giving a significant increase in radiographic score: 0.2 µg/day
Femur fracture model [1]; single injection of nanobeads at fracture site, 2 weeks
  Lovastatin release giving maximum radiographic score: 1.5 µg/day
[2]
  Plasma lovastatin: undetectable
Intact rats; after 30 days, transdermal 5 days
  Bone formation rates greater than those of control rats: more than 150%
Intact rats; dermal 5 mg/kg/day
  Increase in bone formation rates: 166%
Intact rats; 1 mg/kg/day for 5 days only
  Increase in bone volume, proximal tibial metaphysis: 17%
Intact rats; 5 mg/kg/day for 5 days only
  Increase in bone volume, proximal tibial metaphysis: 33%
Intact rats; [5]
  Cancellous bone volume in distal femoral metaphyses by μCT vs controls: higher cancellous bone volume
  Trabecular thickness, number and spacing by μCT: increase in trabecular thickness and number, and reduced trabecular spacing
Intact rats; weekly dermal administration, proximal tibiae, Piximus, end of five weeks
  Increase in BMD over vehicle-treated controls: 8%
Rat femur; dermal 1 mg/kg/day for 5 days
  Increase in bending strength of femurs vs control: 19%
Rat femur; [6]
  Bending strength: 165.2 ± 3 MPa
  Maximum force: 141.7 ± 3.4 N
  Modulus of elasticity: 6379.9 ± 455.1 MPa
  Stiffness: 561.3 ± 29.5 N/mm
Femur fracture model [3]; Experiment 1, 5 day transdermal dose of 2.5 mg/kg, 6 weeks
  Maximum force to break the bones, 2.5 mg/kg vs 1 mg/kg/day: lower maximum force than the 1 mg/kg/day dose
Femur fracture model [3]; Experiment 1, oral 10 and 25 mg/kg, six weeks
  Radiological evaluation of fracture repair: no difference between the treated and the controls
Femur fracture model [3]; Experiment 1, oral 10 and 25 mg/kg/day
  Radiographic score at 2 weeks: no difference from vehicle-treated controls
Femur fracture model [3]; Experiment 1, oral 10 and 25 mg/kg/day, 6 weeks
  Force required to break the bone: no effect
Femur fracture model [3]; Experiment 1, transdermal 1 and 2.5 mg/kg/day
  Radiographic score at 2 weeks: striking effect at both doses
Femur fracture model [3]; Experiment 1, transdermal, 6 weeks
  Force required to break the bone, greater than vehicle treated controls: 42%
Femur fracture model [3]; Experiment 1, transdermal, week 6
  Radiological evaluation of fracture repair: complete healing by week 6
Femur fracture model [3]; Experiment 2, TD 0.1 mg/kg/day, 6 weeks
  Force required to break the bone, greater than vehicle-treated controls: 42%
Femur fracture model [3]; Experiment 2, TD doses higher than 0.1 mg/kg/day
  Maximum force to rebreak the bones: reduced maximum force
Femur fracture model [3]; Experiment 2, oral 5 mg/kg/day, 6 weeks
  Force required to break the bone: no effect
Femur fracture model [3]; Experiment 2, oral 5 mg/kg/day, 6 weeks after fracture
  Stiffness: no effect
Femur fracture model [3]; for 5 days
  Most effective transdermal dose: 0.1 mg/kg/day
Femur fracture model [3]; previous experiment (Experiment 1), oral, higher doses
  Stiffness: increase in stiffness
Femur fracture model [3]; transdermal
  Fracture healing (radiographic examination and biomechanical loading): accelerates fracture healing
Femur fracture model [3]; transdermal, even at 0.1 mg/kg/day for 5 days only
  Strength and stiffness of fractured bones: increase in both strength and stiffness
[4]; single dermal dose
  Plasma levels, aqueous alkanolic gel compared with hydrophilic petrolatum: higher plasma levels
[4]; single dermal dose in aqueous alkanolic gel
  Time to peak plasma levels: within the first hour
[4]; single dermal dose, both doses tested (6.25 and 25 mg/kg)
  AUC0-24 h, aqueous alkanolic gel relative to petrolatum formulation: more than double
[4]; single dose 10 or 50 mg/kg, dermal in 100% DMSO vs gavage in 0.5% methylcellulose, 1, 3, 6, 24 h
  Plasma concentrations, dermal compared with oral: greater, less variable and more prolonged
Neonatal murine calvaria; 7 days after exposure
  Bone formation in cultures of neonatal murine calvaria: stimulates bone formation
Neonatal murine calvaria; 14 days after exposure, scaffold release 0.4 and 0.8 μg/24 h
  Cartilage formation in cultures of neonatal murine calvaria: stimulate cartilage formation in a dose response fashion
